# According to PMC10522709, “Rational design and characterization of cell-selective antimicrobial peptides based on a bioactive peptide from Crocodylus siamensis hemoglobin” (Scientific Reports, 2023):
# Ends that are not written are not given here.
# Assays:
# [1] = tested on: EcoRI-digested Lambda (λ) DNA; experiment: Gel retardation assay; type: binding; details: 200 ng λ DNA, peptide 4, 6, 8, 16 µg/mL, 60 min, room temperature, 0.8% agarose gel
# Method: DNA used for this test was Lambda (λ) DNA, which had been digested with EcoRI into fragments sized 21,226, 7421, 5804, 5643, 4878 and 3530 bp (Thermo Fisher Scientific, Waltham, MA, USA). The gel retardation assay was run by mixing 200 ng of λ DNA with different concentrations of IL15.3 at 1 × MIC (4 µg/mL), 2 × MIC (8 µg/mL), 4 × MIC (16 µg/mL) and MBC (6 µg/mL) of E. coli. The mixtures were incubated for 60 min at room temperature and subjected to electrophoresis on a 0.8% agarose gel. Gel was then stained with ViSafe Red gel stain (Vivantis, Selangor Darul Ehsan, Malaysia). Subsequently, DNA bands were photographed using G-box gel documentation (Syngene, USA).
# E. coli (ATCC25922) = experiment: Time-killing kinetics assay; type: cell-based, Escherichia coli
# Method: The time-killing kinetics of peptide was determined as described previously by Yaraksa et al.[16] In short, E. coli (ATCC25922) and S. epidermidis (ATCC12228) cells grown overnight were diluted in the Nutrient broth to a concentration of 1 × 10^6 CFU/mL. The diluted bacterial suspension (50 µL) was incubated with the peptide solution (50 µL, final concentration = 1 × MIC or 2 × MIC) at 37 °C. 10 µL of the mixture was taken at regular time intervals (0, 15, 30, 60, 180, 360, 540 and 720 min for 1 × MIC and 0, 30, 60, 180, 360, 720, 1440, 2160 and 2880 min for 2 × MIC), diluted and cultured on nutrient agar plates for 24 h. Bacterial cells were then counted and a graph of the log CFU/mL against incubation time was plotted to evaluate the rate at which peptides kill bacterial cells.
# [2] = tested on: Pseudomonas aeruginosa (ATCC 27853); type: cell-based; details: ATCC 27853, 18 h
# Method: (§1) Broth microdilution assays were performed as reported previously. In short, the bacteria including Escherichia coli (ATCC 25922), Klebsiella pneumoniae (ATCC 27736), Pseudomonas aeruginosa (ATCC 27853), Bacillus subtilis (ATCC 6633), Staphylococcus aureus (ATCC 25923) and Staphylococcus epidermidis (ATCC 12228) were grown in Nutrient broth to mid-log phase at 37 °C. The bacterial suspension (50 μL, concentration of 1 × 10^6 CFU/mL) was loaded into a well with serially diluted peptide (50 µL, final concentrations ranging from 0–200 μg/mL) in a sterile 96-well plate and incubated at 37 °C for 18 h. The optical density (OD) at 600 nm was measured using a microplate reader (ALLSHENG, Zhejiang, China) in order to determine the growth of the bacteria. The inhibition was estimated using the formula; %inhibition=OD600ofcontrol-OD600ofsample/OD600ofcontrol-OD600ofblank×100 where minimal inhibitory concentration (MIC) is defined as the minimum concentration that inhibited 90% of bacterial growth.
# [3] = tested on: Staphylococcus aureus (ATCC 25923); type: cell-based; details: ATCC 25923, 18 h
# Method: as §1
# [4] = tested on: Klebsiella pneumoniae (ATCC 27736); type: cell-based; details: ATCC 27736, 18 h
# Method: as §1
# [5] = tested on: Escherichia coli (ATCC 25922); type: cell-based; details: ATCC 25922, 18 h
# Method: as §1
# [6] = tested on: Staphylococcus epidermidis (ATCC 12228); type: cell-based; details: ATCC 12228, 18 h
# Method: as §1
# [7] = tested on: Bacillus subtilis (ATCC 6633); type: cell-based; details: ATCC 6633, 18 h
# Method: as §1
sequence,measurement,setting,value
IKHWKKVWKHAKKVL [IL15.3],interaction with DNA (gel retardation),[1],binds to λ DNA fragments
same,time to inhibit the growth kinetic rate,"E. coli (ATCC25922); 1 × MIC, 37 °C, 1 × 10^6 CFU/mL, colony count",≤ 60 min
same,time to completely stop growth,"E. coli (ATCC25922); 1 × MIC, 37 °C, colony count",180 min
same,time to begin to inhibit growth kinetic rate,"E. coli (ATCC25922); 2 × MIC, 37 °C, colony count",≤ 30 min
same,time to fully kill the cells,"E. coli (ATCC25922); 2 × MIC, 37 °C, colony count",≤ 180 min
same,regrowth of cells,"E. coli (ATCC25922); 2 × MIC, after 48 h",did not allow the cells to regrow
same,MIC,[2],10 µg/mL
same,MIC,[3],12 µg/mL
same,MIC,[4],10 µg/mL
same,MIC,[5],4 µg/mL
same,MIC,[6],9 µg/mL
same,MIC,[7],8 µg/mL
